What was measured:
APOL1 G2 [1] = target: T1, APOL1 G2 (Homo sapiens, UniProt O14791, DEL388-389); experiment: APOL1 calcium transport inhibition assay (GCaMP6f calcium influx, FLIPR) in HEK T-REx/GCaMP6f/APOL1 G2 K6.3 cells; format: cell-based; conditions: inhibition of APOL1-mediated calcium influx; geometric mean of at least 2 assay runs, † = single assay run (technical duplicate)
T1 construct: expressed in transfected cells; host or cells: HEK293 T-REx clonal lines: HEK T-REx/GCaMP6f/APOL1 G2 K6.3 in A1, HEK293/T-REx APOL1 G2/clone #2 in A2
T1 sequence (O14791 with tags, fused parts or gaps DEL388-389): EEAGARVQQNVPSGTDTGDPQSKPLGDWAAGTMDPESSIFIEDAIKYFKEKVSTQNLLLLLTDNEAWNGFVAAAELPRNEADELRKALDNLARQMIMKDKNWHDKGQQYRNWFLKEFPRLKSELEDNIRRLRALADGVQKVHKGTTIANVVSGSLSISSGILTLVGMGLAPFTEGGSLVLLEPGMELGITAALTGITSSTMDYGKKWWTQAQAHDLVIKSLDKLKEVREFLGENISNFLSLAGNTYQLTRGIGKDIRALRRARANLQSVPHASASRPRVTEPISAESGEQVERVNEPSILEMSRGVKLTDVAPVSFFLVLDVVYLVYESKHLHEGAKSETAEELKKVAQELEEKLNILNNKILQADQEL
Summary of the method: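 HEK293 cells stably expressing GCaMP6f, APOL1 G2 induced 6 h with doxycycline (20 ng/mL added), then washed into Ca2+-free Tyrode's buffer pH 7.4. Compounds (8-point dose response) preincubated 10 min at room temperature, then Ca2+ injected to 5 mM final and influx read on FLIPR. AC50 reported as geometric mean of runs.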

APOL1 G2 [2] = target: T1, APOL1 G2; experiment: Rescue of HEK293 cell death caused by overexpression of APOL1 (CellTiter-Glo luminescence), HEK293/T-REx APOL1 G2/clone #2; format: cell-based; conditions: reversal of cell death caused by overexpression of APOL1; geometric mean of at least 2 assay runs, † = single assay run (technical duplicate)
Summary of the method: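 Rescue EC50s come from four-parameter logistic fits, geometric mean of at least 2 runs on separate days, each in duplicate. Readout: CellTiter-Glo luminescence after 17 h at 37 °C of 5,000 HEK293/T-REx APOL1 G2 clone #2 cells/well, with 6 ng/mL doxycycline to induce APOL1 and 3-fold serial compound dilutions in 0.5% DMSO.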

AC50 (APOL1 G2 [1]) [nM]	SMILES	EC50 (APOL1 G2 [2]) [nM]
491	C[C@@H]1CN(CCc2cc(Cl)cc(C#N)c2)C[C@H]1COc1ccc(S(=O)(=O)C2CNC2)cc1 [Compound 173, 3-{2-[(3S,4S)-3-{[4-(azetidine-3-sulfonyl)phenoxy]methyl}-4-methylpyrrolidin-1-yl]ethyl}-5-chlorobenzonitrile]	201
157	C[C@@H]1CN(CCc2cc(Cl)cc(C#N)c2)C[C@H]1COc1ccc(S(=O)(=O)CCO)cc1 [Compound 174, 3-chloro-5-{2-[(3S,4S)-3-{[4-(2-hydroxyethanesul-fonyl)phenoxy]meth-yl}-4-methylpyrrolidin-1-yl]ethyl}benzonitrile]	36.1
< 96.1	C[C@@H]1CN(CCc2cc(F)cc(Cl)c2)C[C@H]1COc1ccc(S(C)(=O)=O)cc1 [Compound 181, (3S,4S)-1-[2-(3-chloro-5-fluorophenyl)ethyl]-3-[(4-methanesulfonylphenoxy)methyl]-4-methylpyrrolidine]	325
396	N#Cc1cc(Cl)cc(CCN2CCN[C@H](COc3ccc(S(=O)(=O)CCO)cc3)C2)c1 [Compound 182, 3-chloro-5-{2-[(3S)-3-{[4-(2-hydroxyethane-sulfonyl)phenoxy]methyl}pi-perazin-1-yl]ethyl}benzo-nitrile]	399
149	CC(C)(CO)S(=O)(=O)c1ccc(OC[C@@H]2CN(CCc3cc(Cl)cc(C#N)c3)CCN2)cc1 [Compound 183, 3-chloro-5-{2-[(3S)-3-{[4-(1-hydroxy-2-methylpropane-2-sulfonyl)phenoxy]methyl}pi-perazin-1-yl]ethyl}benzo-nitrile]	157
215	CS(=O)(=O)CCCS(=O)(=O)c1ccc(OC[C@@H]2CN(CCc3cccc(Cl)c3)CCN2)cc1 [Compound 184, (3S)-1-[2-(3-chlorophenyl)ethyl]-3-{[4-(3-methanesulfonylpropanesulfonyl)phenoxy]methyl}piperazine]	622
322	O=S(=O)(c1ccc(OC[C@@H]2CN(CCc3cccc(Cl)c3)CCN2)cc1)C1CNC1 [Compound 185, (3S)-3-{[4-(azetidine-3-sulfonyl)phenoxy]methyl}-1-[2-(3-chlorophenyl)ethyl]piperazine]	239
6980	CN=S(C)(=O)c1ccc(OC[C@@H]2CN(CCc3cc(Cl)cc(C#N)c3)CCN2)cc1 (stereo partly drawn) [Compound 186, 3-chloro-5-{2-[(3S)-3-({4-[methyl(methyl-imino)oxo-λ^6-sulfanyl]pheno-xy}methyl)pipera-zin-1-yl]ethyl}benzo-nitrile]	631
634	CS(=O)(=O)c1ccc(OC[C@@H]2CN(CCc3cc(Cl)cc(C#N)c3)CCN2)cc1 [Compound 189, 3-chloro-5-{2-[(3S)-3-[(4-methanesulfonylphenoxy)methyl]piperazin-1-yl]ethyl}benzonitrile]	922
170	CS(=O)(=O)c1ccc(OC[C@@H]2CN(CCc3cc(Cl)cc(Cl)c3)CCN2)cc1 [Compound 190, (3S)-1-[2-(3,5-dichlorophenyl)ethyl]-3-[(4-methanesulfonylphenoxy)methyl]piperazine]	291
228	COc1ccc(Cl)cc1CCN1CCN[C@H](COc2ccc(S(C)(=O)=O)cc2)C1 [Compound 191, (3S)-1-[2-(5-chloro-2-methoxyphenyl)ethyl]-3-[(4-methanesulfonylphenoxy)methyl]piperazine]	663
260	CS(=O)(=O)c1ccc(OC[C@@H]2CN(CCc3cc(Cl)ccc3OC(F)F)CCN2)cc1 [Compound 192, (3S)-1-{2-[5-chloro-2-(difluoromethoxy)phenyl]eth-yl}-3-[(4-methanesulfonylphenoxy)methyl]piperazine]	915
1450	CS(=O)(=O)c1ccc(OC[C@@H]2CN(CCc3cc(C#N)cc(C(F)(F)F)c3)CCN2)cc1 [Compound 193, 3-{2-[(3S)-3-[(4-methanesulfonylphenoxy)methyl]piperazin-1-yl]ethyl}-5-(trifluoromethyl)benzonitrile]	782
151	C[C@@H]1CN(CCc2cc(Cl)cc(C#N)c2)C[C@H]1COc1ccc(S(C)(=O)=O)cc1 [Compound 194, 3-chloro-5-{2-[(3S,4S)-3-[(4-methanesulfonylphenoxy)methyl]-4-methylpyrrolidin-1-yl]ethyl}benzonnitrile]	107
236	C[C@@H]1CN(CCc2cc(F)cc(C#N)c2)C[C@H]1COc1ccc(S(C)(=O)=O)cc1 [Compound 195, 3-fluoro-5-{2-[(3S,4S)-3-[(4-methanesulfonylphenoxy)methyl]-4-methylpyrrolidin-1-yl]ethyl}benzonitrile]	226
108	C[C@@H]1CN(CCc2cc(Br)cc(C#N)c2)C[C@H]1COc1ccc(S(C)(=O)=O)cc1 [Compound 196, 3-bromo-5-{2-[(3S,4S)-3-[(4-methanesulfonylphenoxy)methyl]-4-methylpyrrolidin-1-yl]ethyl}benzonitrile]	110
334	Cc1ccc(Cl)cc1CCN1CCN[C@H](COc2ccc(S(C)(=O)=O)cc2)C1 [Compound 197, (3S)-1-[2-(5-chloro-2-methylphenyl)ethyl]-3-[(4-methanesulfonylphenoxy)methyl]piperazine]	369
197	Cc1cc(C#N)cc(CCN2C[C@@H](COc3ccc(S(C)(=O)=O)cc3)[C@H](C)C2)c1 [Compound 198, 3-{2-[(3S,4S)-3-[(4-methanesulfonylphenoxy)methyl]-4-methylpyrrolidin-1-yl]ethyl}-5-methylbenzonitrile]	71.5
< 118	CC1CNC(COc2ccc(S(C)(=O)=O)cc2)CN1CCc1cccc(Cl)c1 (centres unmarked) [Compound 211, 1-[2-(3-chlorophenyl)ethyl]-5-[(4-methanesulfonylphenoxy)methyl]-2-methylpiperazine]	1360
